According to patent US6358885B1, “Substituted phenylheterocyclic herbicides” (Mississippi State University, priority 1992, dated 2002):

Tests used:
cocklebur = assay: Test B preemergence/postemergence greenhouse plant response rating 0 to 10; format: in vivo, Xanthium pensylvanicum; conditions: for Plant response rating, Cocklebur: 0 to 10 scale
Procedure, shortened: (§1)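 Test chemicals, dissolved in a non-phytotoxic solvent, were applied to soil at planting and, at the same time, over foliage of seedlings at the one to four leaf stage.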

rice [1] = assay: Test C flood test plant response rating 0 to 100; format: in vivo, Oryza sativa; conditions: for Plant response rating Rice Japonica: flood test species listed under POSTEMERGENCE, 0 to 100 scale
Excerpt: (§2) The compounds evaluated in this test were formulated in a non-phytoxic solvent and applied to the soil surface before plant seedlings emerged (preemergence application), to water that covered the soil surface (flood application), and to plants that were in the one-to-four leaf stage (postemergence application). A sandy loam soil was used for the preemergence and postemergence tests, while a silt loam soil was used in the flood test. Water depth was approximately 2.5 cm for the flood test and was maintained at this level for the duration of the test. Plant species in the preemergence and postemergence tests consisted of barley (Hordeum vulgare), bedstraw (Galium aparine), blackgrass (Alopecurus myosuroides), chickweed (Stellaria media), corn (Zea mays), cotton (Gossypium hirsutum), crabgrass (Digitaria sanguinalis), downy brome (Bromus tectorum), giant foxtail (Setaria faberii), lambsquarters (Chenopodium album), morningglory (Ipomoea hederacea), pigweed ([…]), rape (Brassica napus), ryegrass (Lolium multiflorum), sorghum (Sorghum bicolor), soybean (Glycine max), speedwell (Veronica persica), sugar beet (Beta vulgaris), velvetleaf (Abutilon theophrasti), wheat (Triticum aestivum), wild buckwheat (Polygonum convolvulus), and wild oat (Avena fatua). All plant species were planted one day before application of the compound for the preemergence portion-of this test. Plantings of these species were adjusted to produce plants of appropriate size for the post-emergence portion of the test. […] All plant species were grown using normal greenhouse practices. Visual evaluations of injury expressed on treated plants, when compared to untreated controls, were recorded approximately fourteen to twenty one days after application of the test compound. […] A dash (-) response means no test result.

pigweed = assay: Test C preemergence/postemergence greenhouse plant response rating 0 to 100; format: in vivo, Amaranthusretroflexus; conditions: POSTEMERGENCE; for Plant response rating Pigweed: 0 to 100 scale
Procedure, shortened: (§3)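 Compounds in non-phytotoxic solvent applied preemergence to sandy loam one day after planting, postemergence at the 1–4 leaf stage, or to ~2.5 cm floodwater over silt loam.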

purple nutsedge = assay: Test B preemergence/postemergence greenhouse plant response rating 0 to 10; format: in vivo, Cyperus rotundus; conditions: 0 to 10 scale
Procedure, shortened: as §1

bedstraw = assay: as above; format: in vivo, Galium aparine; conditions: for Plant response rating, Bedstraw: 0 to 10 scale
Procedure, shortened: as §1

barley = assay: as above; format: in vivo, Hordeum vulgare; conditions: for Plant response rating, Barley: 0 to 10 scale
Procedure, shortened: as §1

crabgrass = assay: as above; format: in vivo, Digitaria spp.; conditions: for Plant response rating, Crabgrass: 0 to 10 scale
Procedure, shortened: as §1

umbrella sedge = assay: Test C flood test plant response rating 0 to 100; format: in vivo, Cyperus difformis; conditions: for Plant response rating Umbrella sedge: flood test species listed under POSTEMERGENCE, 0 to 100 scale
Excerpt: as §2

sorghum = assay: Test C preemergence/postemergence greenhouse plant response rating 0 to 100; format: in vivo, Sorghum bicolor; conditions: POSTEMERGENCE; for Plant response rating, Sorghum: 0 to 100 scale
Procedure, shortened: as §3

soybean = assay: Test B preemergence/postemergence greenhouse plant response rating 0 to 10; format: in vivo, Glycine max; conditions: 0 to 10 scale
Procedure, shortened: as §1

lambsquarters = assay: as above; format: in vivo, Chenopodium album; conditions: 0 to 10 scale
Procedure, shortened: as §1

rice [2] = assay: as above; format: in vivo, Oryza sativa; conditions: 0 to 10 scale
Procedure, shortened: as §1

morningglory = assay: Test C preemergence/postemergence greenhouse plant response rating 0 to 100; format: in vivo, Ipomoea hederacea; conditions: POSTEMERGENCE; for Plant response rating, Morningglory: 0 to 100 scale
Procedure, shortened: as §3

sugar beet = assay: Test B preemergence/postemergence greenhouse plant response rating 0 to 10; format: in vivo, Beta vulgaris; conditions: 0 to 10 scale
Procedure, shortened: as §1

barnyardgrass = assay: Test C flood test plant response rating 0 to 100; format: in vivo, Echinochloa crus-galli; conditions: for Plant response rating (0 to 100), Barnyardgrass: under POSTEMERGENCE head (flood test species); for Plant response rating, Barnyardgrass: flood test species listed under POSTEMERGENCE, 0 to 100 scale
Excerpt: as §2

corn = assay: Test C preemergence/postemergence greenhouse plant response rating 0 to 100; format: in vivo, Zea mays; conditions: POSTEMERGENCE; for Plant response rating, Corn: 0 to 100 scale
Procedure, shortened: as §3

blackgrass = assay: Test B preemergence/postemergence greenhouse plant response rating 0 to 10; format: in vivo, Alopecurus myosuroides; conditions: for Plant response rating, Blackgrass: 0 to 10 scale
Procedure, shortened: as §1

rape = assay: as above; format: in vivo, Brassica napus; conditions: 0 to 10 scale
Procedure, shortened: as §1

[3] = POSTEMERGENCE section, flood test, Rate 4 g/ha
[4] = Rate 16 g/ha, under POSTEMERGENCE head (flood test species)

Question: With CC(C)COc1cc(-c2nn3c(c2Cl)CCCC3)c(F)cc1Cl [Compound 30] as the molecule, how does the “Plant response rating (0 to 10 scale), Cocklebur” value (cocklebur; POSTEMERGENCE, Rate 50 g/ha) read?
Answer: 7

Question: And the “Plant response rating, Cocklebur” value (cocklebur; POSTEMERGENCE, Rate 200 g/ha)?
Answer: 10

Question: And the “Plant response rating, Cocklebur” value (cocklebur; PREEMERGENCE, Rate 50 g/ha)?
Answer: 0

Question: What about the “Plant response rating, Cocklebur” value (cocklebur; Rate 200 g/ha, PREEMERGENCE) of the same molecule?
Answer: 4

Question: What about the “Plant response rating (0 to 100), Rice Japonica” value (rice [1]; [3]) of the same molecule?
Answer: 35

Question: What about the “Plant response rating (0 to 100), Rice Japonica” value (rice [1]; [4]) of the same molecule?
Answer: 40

Question: And the “Plant response rating Rice Japonica” value (rice [1]; 62 g/ha)?
Answer: 50

Question: And the “Plant response rating Rice Japonica” value (rice [1]; 250 g/ha)?
Answer: 60

Question: And the “Plant response rating Pigweed” value (pigweed; 62 g/ha)?
Answer: 100

Question: And the “Plant response rating Pigweed” value (pigweed; 250 g/ha)?
Answer: 100

Question: And the “Plant response rating (0 to 100), Pigweed” value (pigweed; Rate 4 g/ha)?
Answer: 100

Question: And the “Plant response rating (0 to 100), Pigweed” value (pigweed; Rate 16 g/ha)?
Answer: 100

Question: What about the “Plant response rating, Nutsedge” value (purple nutsedge; POSTEMERGENCE, Rate 50 g/ha) of the same molecule?
Answer: 2

Question: And the “Plant response rating, Nutsedge” value (purple nutsedge; PREEMERGENCE, Rate 50 g/ha)?
Answer: 0

Question: And the “Plant response rating, Nutsedge” value (purple nutsedge; Rate 200 g/ha, POSTEMERGENCE)?
Answer: 5

Question: And the “Plant response rating, Nutsedge” value (purple nutsedge; Rate 200 g/ha, PREEMERGENCE)?
Answer: 0

Question: What about the “Plant response rating (0 to 10 scale), Bedstraw” value (bedstraw; POSTEMERGENCE, Rate 50 g/ha) of the same molecule?
Answer: 8

Question: And the “Plant response rating, Bedstraw” value (bedstraw; POSTEMERGENCE, Rate 200 g/ha)?
Answer: 10

Question: What about the “Plant response rating, Bedstraw” value (bedstraw; PREEMERGENCE, Rate 50 g/ha) of the same molecule?
Answer: 0

Question: And the “Plant response rating, Bedstraw” value (bedstraw; Rate 200 g/ha, PREEMERGENCE)?
Answer: 9

Question: And the “Plant response rating (0 to 10 scale), Barley” value (barley; POSTEMERGENCE, Rate 50 g/ha)?
Answer: 5

Question: What about the “Plant response rating, Barley” value (barley; POSTEMERGENCE, Rate 200 g/ha) of the same molecule?
Answer: 6

Question: And the “Plant response rating, Barley” value (barley; PREEMERGENCE, Rate 50 g/ha)?
Answer: 0

Question: What about the “Plant response rating, Barley” value (barley; Rate 200 g/ha, PREEMERGENCE) of the same molecule?
Answer: 2

Question: What about the “Plant response rating (0 to 10 scale), Crabgrass” value (crabgrass; POSTEMERGENCE, Rate 50 g/ha) of the same molecule?
Answer: 3

Question: And the “Plant response rating, Crabgrass” value (crabgrass; POSTEMERGENCE, Rate 200 g/ha)?
Answer: 2

Question: And the “Plant response rating, Crabgrass” value (crabgrass; PREEMERGENCE, Rate 50 g/ha)?
Answer: 6

Question: And the “Plant response rating, Crabgrass” value (crabgrass; Rate 200 g/ha, PREEMERGENCE)?
Answer: 9

Question: And the “Plant response rating (0 to 100), Umbrella sedge” value (umbrella sedge; [3])?
Answer: 10

Question: What about the “Plant response rating (0 to 100), Umbrella sedge” value (umbrella sedge; [4]) of the same molecule?
Answer: 25

Question: And the “Plant response rating Umbrella sedge” value (umbrella sedge; 62 g/ha)?
Answer: 30

Question: What about the “Plant response rating Umbrella sedge” value (umbrella sedge; 250 g/ha) of the same molecule?
Answer: 80

Question: And the “Plant response rating, Sorghum” value (sorghum; 62 g/ha)?
Answer: 20

Question: And the “Plant response rating, Sorghum” value (sorghum; 250 g/ha)?
Answer: 40

Question: And the “Plant response rating (0 to 100), Sorghum” value (sorghum; Rate 4 g/ha)?
Answer: 0

Question: What about the “Plant response rating (0 to 100), Sorghum” value (sorghum; Rate 16 g/ha) of the same molecule?
Answer: 0

Question: What about the “Plant response rating, Soybean” value (soybean; POSTEMERGENCE, Rate 50 g/ha) of the same molecule?
Answer: 7

Question: And the “Plant response rating, Soybean” value (soybean; PREEMERGENCE, Rate 50 g/ha)?
Answer: 0

Question: What about the “Plant response rating, Soybean” value (soybean; Rate 200 g/ha, POSTEMERGENCE) of the same molecule?
Answer: 2

Question: And the “Plant response rating, Soybean” value (soybean; Rate 200 g/ha, PREEMERGENCE)?
Answer: 2

Question: What about the “Plant response rating, Lambsquarter” value (lambsquarters; POSTEMERGENCE, Rate 50 g/ha) of the same molecule?
Answer: 10

Question: What about the “Plant response rating, Lambsquarter” value (lambsquarters; PREEMERGENCE, Rate 50 g/ha) of the same molecule?
Answer: 8

Question: What about the “Plant response rating, Lambsquarter” value (lambsquarters; Rate 200 g/ha, POSTEMERGENCE) of the same molecule?
Answer: 10

Question: What about the “Plant response rating, Lambsquarter” value (lambsquarters; Rate 200 g/ha, PREEMERGENCE) of the same molecule?
Answer: 10

Question: What about the “Plant response rating, Rice” value (rice [2]; POSTEMERGENCE, Rate 50 g/ha) of the same molecule?
Answer: 5

Question: And the “Plant response rating, Rice” value (rice [2]; PREEMERGENCE, Rate 50 g/ha)?
Answer: 0

Question: And the “Plant response rating, Rice” value (rice [2]; Rate 200 g/ha, POSTEMERGENCE)?
Answer: 5

Question: And the “Plant response rating, Rice” value (rice [2]; Rate 200 g/ha, PREEMERGENCE)?
Answer: 2

Question: What about the “Plant response rating, Morningglory” value (morningglory; 62 g/ha) of the same molecule?
Answer: 80

Question: What about the “Plant response rating, Morningglory” value (morningglory; 250 g/ha) of the same molecule?
Answer: 90

Question: And the “Plant response rating (0 to 100), Morningglory” value (morningglory; Rate 4 g/ha)?
Answer: 30

Question: What about the “Plant response rating (0 to 100), Morningglory” value (morningglory; Rate 16 g/ha) of the same molecule?
Answer: 50

Question: What about the “Plant response rating, Sugar beet” value (sugar beet; POSTEMERGENCE, Rate 50 g/ha) of the same molecule?
Answer: 10

Question: What about the “Plant response rating, Sugar beet” value (sugar beet; PREEMERGENCE, Rate 50 g/ha) of the same molecule?
Answer: 5

Question: What about the “Plant response rating, Sugar beet” value (sugar beet; Rate 200 g/ha, POSTEMERGENCE) of the same molecule?
Answer: 10

Question: And the “Plant response rating, Sugar beet” value (sugar beet; Rate 200 g/ha, PREEMERGENCE)?
Answer: 9

Question: What about the “Plant response rating (0 to 100), Barnyardgrass” value (barnyardgrass; Rate 4 g/ha) of the same molecule?
Answer: 85

Question: And the “Plant response rating (0 to 100), Barnyardgrass” value (barnyardgrass; Rate 16 g/ha)?
Answer: 95

Question: What about the “Plant response rating, Barnyardgrass” value (barnyardgrass; 62 g/ha) of the same molecule?
Answer: 100

Question: What about the “Plant response rating, Barnyardgrass” value (barnyardgrass; 250 g/ha) of the same molecule?
Answer: 100

Question: What about the “Plant response rating, Corn” value (corn; 62 g/ha) of the same molecule?
Answer: 30

Question: And the “Plant response rating, Corn” value (corn; 250 g/ha)?
Answer: 40

Question: And the “Plant response rating (0 to 100), Corn” value (corn; Rate 4 g/ha)?
Answer: 20

Question: And the “Plant response rating (0 to 100), Corn” value (corn; Rate 16 g/ha)?
Answer: 20

Question: What about the “Plant response rating (0 to 10 scale), Blackgrass” value (blackgrass; POSTEMERGENCE, Rate 50 g/ha) of the same molecule?
Answer: 5

Question: And the “Plant response rating, Blackgrass” value (blackgrass; POSTEMERGENCE, Rate 200 g/ha)?
Answer: 5

Question: And the “Plant response rating, Blackgrass” value (blackgrass; PREEMERGENCE, Rate 50 g/ha)?
Answer: 0

Question: What about the “Plant response rating, Blackgrass” value (blackgrass; Rate 200 g/ha, PREEMERGENCE) of the same molecule?
Answer: 0

Question: What about the “Plant response rating, Rape” value (rape; POSTEMERGENCE, Rate 50 g/ha) of the same molecule?
Answer: 5

Question: And the “Plant response rating, Rape” value (rape; PREEMERGENCE, Rate 50 g/ha)?
Answer: 0

Question: What about the “Plant response rating, Rape” value (rape; Rate 200 g/ha, POSTEMERGENCE) of the same molecule?
Answer: 9

Question: What about the “Plant response rating, Rape” value (rape; Rate 200 g/ha, PREEMERGENCE) of the same molecule?
Answer: 3
